Here are results for two molecules from paper PMC7092418 (Genes and Environment, 2020).

Data set [1] relates to S. typhimurium YG9028. The following applies: Salmonella typhimurium.
Data set [2] has as its system rat. As to conditions: in vivo; cited from earlier work.

Molecule `COS(C)(=O)=O` [MMS, Methylmethane sulfonate] displayed a Specific mutagenicity in data set [1] of 0.205 revertants/plate/nmole.
For the molecule `[N-]=[N+]=[N-].[Na+]` [sodium azide], in data set [2], the Carcinogenicity entry is reported as “non-carcinogenic”.
